One may read the inhibition as the share of the control response that was lost under treatment. For orientation: IC50 means the midpoint of a concentration-inhibition curve.

Here are results for five molecules from US20130310374A1, “Substituted Imidazoquinoline Derivatives” (PIRAMAL ENTERPRISES LIMITED`, priority 2010, published 2013).

Assay [1] concerns IL-6. The experiment in a line: Anti-CD3 mAb and anti-CD28 mAb-induced cytokine production assay, IL-6. Type of assay: cell-based. The settings on record: Homo sapiens, hPBMC, anti-CD3/anti-CD28, 18 hours. The procedure:
Anti-CD3 mAb and Anti-CD28 mAb-Induced Cytokine Production Assay
Preparation of anti-CD3/anti-CD28 coated plates: 96 well plates were coated with goat anti-mouse IgG, Fc (Millipore) at a concentration of 16.5 μg/mL in coating buffer ([…] NaHCO3, 3.56 g Na2CO3, pH 9.5). Following overnight incubation at 4° C., the plates were washed and then incubated with anti-CD3 (3.5 μg/mL; R&D Systems) and anti-CD28 (35 ng/mL; R&D Systems) cocktail for 3 hours. Subsequently, the plates were washed, and used for hPBMC stimulation.
hPBMC stimulation: Peripheral blood was collected from normal healthy volunteers after informed consent. Peripheral blood mononuclear cells (hPBMC) were harvested using Ficoll-Hypaque density gradient centrifugation (1.077 g/mL; Sigma Aldrich). hPBMCs were resuspended in RPMI 1640 culture medium (Gibco BRL, Pasley, UK) containing 10% FCS, 100 U/mL penicillin (Sigma Chemical Co. St Louis, Mo.) and […] streptomycin (Sigma Chemical Co. St Louis, Mo.) at 1.25×10^6 cells/mL of assay medium. 2.5×10^5 hPBMCs were added per well of 96-well plate coated with or without anti-CD3/anti-CD28 mAbs. Simultaneously, 0.025 μM of compounds of the present invention or 0.5% DMSO (vehicle control) were added to appropriate wells. The cells were then incubated for 18 hours at 37° C., 5% CO2 following which supernatants were collected, stored at […] and assayed later for TNF-α, IL-6 and IFN-γ by ELISA (OptiEIA ELISA sets; BD Biosciences). In every experiment, each condition was run in triplicate wells. In all experiments, the toxicity of test compounds was ascertained, in parallel, using the MTS (3-(4,5-dimethylthiazol-2-yl)-5-(3-carboxymethoxyphenyl)-2-(4-sulfonyl)-2H-tetrazolium) assay as described in Am. J. Physiol. Cell Physiol., 2003, 285, C813-C822.

Assay [2] deals with MDA MB 231. The experiment in a line: Cytotoxicity propidium iodide assay, MDA MB 231. Type of assay: cell-based. The settings on record: Homo sapiens; MDA MB 231 (breast), 48 hours treatment; read-out: IC50 Values in μM, C3a.
Assay [3] concerns human PC3 xenograft tumors. Description: Prostate cancer xenograft model (tumor growth inhibition in vivo). Details: species or system mouse. The conditions noted are these: SCID mice, 3 mpk p.o. (Example 3a once daily and BID; Example 19 once daily), 15 days; FIG. 3A. The procedure: Animals: Severe combined immunodeficient (SCID) mice (Male and Female) 6 to 8 weeks old, were used. Animals were housed in suitable cages under specified pathogen-free conditions in rooms maintained at 23° C. and 50% humidity, with a 12-hour light/12-hour dark cycle. The mice were quarantined during the acclimatization period of at least a week.
Prostate cancer xenograft model: PC3 (human prostate cancer) cell line (ATCC) was maintained in RPMI 1640 (Gibco BRL, Pasley, UK) supplemented with 10% (v/v) FBS. The cells were incubated at 37° C. in a humidified atmosphere containing 5% CO2. Cells were passaged using trypsin/EDTA for cell detachment once every 3 days. On the day of tumor cell injection, cells were detached from the flasks with trypsin/EDTA, washed once in medium and re-suspended in serum free RPMI 1640 at 5 million cells/0.2 mL volume, and placed on ice. […]
Procedure: Tumor-bearing mice were randomized (n=7 per group) in four groups when the mean tumor volume was ˜100 mm^3. […] Twice a week, each xenograft was measured in two dimensions (a=length; b=width) with a caliper. Tumor volume (V) was determined by the following equation: V=ab^2/2
Tumor volumes were converted into tumor weights assuming a tumor density of 1 mm^3=1 mg. Tumor growth inhibition (TGI) for each group was calculated according to the following formula: […]

The subject of assay [4] is U 87 MG. The experiment in a line: Cytotoxicity propidium iodide assay, U 87 MG. Type of assay: cell-based. The settings on record: Homo sapiens; U 87 MG (glioblastoma), 48 hours treatment; read-out: IC50 Values in μM, C5c. As for the experimental part: The assay was designed as in the reference, Anticancer Drugs, 2002, 13, 1-8, the disclosure of which is incorporated herein by reference for the teaching of the assay.
Cells from cell lines (ATCC) as mentioned in the table given below were seeded at a density of 3000 cells/well in a white opaque 96-well plate. Following incubation at 37° C./5% CO2 for a period of 18-24 hours, the cells were treated with various concentrations (stock solution was prepared in DMSO and subsequent dilutions were made in media as per ATCC guidelines) of the compounds of the present invention for a period of 48 hours. At the end of treatment, the culture medium was discarded, the cells were washed with 1×PBS and 200 μL of […] propidium iodide was added to each well. […] For analysis, the plates were warmed to RT, allowed to thaw and were read in PoleStar fluorimeter with the fluorescence setting. The percentage of viable cells in the non-treated set of wells was considered to be 100 and the percentage viability following treatment was calculated accordingly. IC50 values were calculated from graphs plotted using these percentages. IC50 values for certain compounds of present invention are depicted in Table 1 and % Inhibition of certain compounds of present invention are depicted in Table 2.

With `Cn1c(=O)n(-c2ccc(C(C)(C)C#N)nc2)c2c3cc(-c4cnc5ccccc5c4)ccc3ncc21` [Example 2, 2-Methyl-2-(5-(3-methyl-2-oxo-8-(quinolin-3-yl)-2,3-dihydro-1H-imidazo[4,5-c]quinolin-1-yl)pyridin-2-yl)propanenitrile], in assay [1], 0.025 µM produced 43% inhibition. In addition, the 50% inhibitory concentration (IC50) in assay [2] turned out to be 0.07 µM.

`Cn1c(=O)n(-c2ccc(C(C)(C)C#N)nc2)c2c3cc(-c4cnc(N)c(C(F)(F)F)c4)ccc3ncc21` [Example 3, 2-(5-(8-(6-Amino-5-(trifluoromethyl)pyridin-3-yl)-3-methyl-2-oxo-2,3-dihydro-1H-imidazo[4,5-c]quinolin-1-yl)pyridin-2-yl)-2-methylpropanenitrile] displayed an inhibition at 0.025 µM in assay [1] of 84%. Further, the IC50 in assay [2] is 0.014 µM.

On to `CS(=O)(=O)O.Cn1c(=O)n(-c2ccc(C(C)(C)C#N)nc2)c2c3cc(-c4cnc(N)c(C(F)(F)F)c4)ccc3ncc21` [Example 3a, 8-(6-Amino-5-(trifluoromethyl)pyridin-3-yl)-1-(6-(2-cyanopropan-2-yl)pyridin-3-yl)-3-methyl-2-oxo-2,3-dihydro-1H-imidazo[4,5-c]quinolin-5-ium methanesulfonate], for which, in assay [3], the “Tumor growth in-vivo, PC3 xenograft” value is reported as “effectively inhibit tumor growth in-vivo”.

`CC(C)(C#N)c1ccc(-n2c(=O)n(CC#N)c3cnc4ccc(-c5cnc(N)c(C(F)(F)F)c5)cc4c32)cn1` [Example 16, 2-(5-(8-(6-Amino-5-(trifluoromethyl)pyridin-3-yl)-3-(cyanomethyl)-2-oxo-2,3-dihydro-1H-imidazo[4,5-c]quinolin-1-yl)pyridin-2-yl)-2-methylpropanenitrile] gave an inhibition at 0.025 µM in assay [1] of 75%. Moreover, the results for the IC50 in assay [2] and in assay [4] were 0.07 µM and 7.75 µM, respectively.

As for `COc1ccc(-n2c(=O)n(C)c3cnc4ccc(-c5cnc(N)c(C(F)(F)F)c5)cc4c32)cn1` [Example 19, 8-(6-Amino-5-(trifluoromethyl)pyridin-3-yl)-1-(6-methoxypyridin-3-yl)-3-methyl-1H-imidazo[4,5-c]quinolin-2(3H)-one], the inhibition at 0.025 µM in assay [1] came out at 86%. In assay [3], the “Tumor growth in-vivo, PC3 xenograft” value is “effectively inhibit tumor growth in-vivo”. In addition, the values for the IC50 in assay [2] and in assay [4] were 0.17 µM and 3.88 µM, respectively.
